Results: patent US20250236589A1, “THERAPEUTIC PHENETHYLAMINE COMPOSITIONS AND METHODS OF USE” (Cybin IRL Limited, priority 2022, published 2025)
Read-outs that look alike come from different tables or passages of the source.

What was measured:
[1] = target: Cholecystokinin CCK2 (CCKB) (h) (Homo sapiens (Human), UniProt P32239); test: Off-target screen, radioligand displacement at 10 μM; conditions: read-out: binding at 10 μM
Adenosine A2A (h) = Adenosine A2A (h) (Homo sapiens (Human), UniProt P29274); test: as above; format: binding
[2] = target: Calcitonin Gene-Related Peptide CGRP1 (h) (Homo sapiens (Human), UniProt Q16602); test: as above; conditions: read-out: binding at 10 μM
Calcitonin Gene-Related Peptide CGRP1 (h), sequence (Q16602 whole entry, looked up): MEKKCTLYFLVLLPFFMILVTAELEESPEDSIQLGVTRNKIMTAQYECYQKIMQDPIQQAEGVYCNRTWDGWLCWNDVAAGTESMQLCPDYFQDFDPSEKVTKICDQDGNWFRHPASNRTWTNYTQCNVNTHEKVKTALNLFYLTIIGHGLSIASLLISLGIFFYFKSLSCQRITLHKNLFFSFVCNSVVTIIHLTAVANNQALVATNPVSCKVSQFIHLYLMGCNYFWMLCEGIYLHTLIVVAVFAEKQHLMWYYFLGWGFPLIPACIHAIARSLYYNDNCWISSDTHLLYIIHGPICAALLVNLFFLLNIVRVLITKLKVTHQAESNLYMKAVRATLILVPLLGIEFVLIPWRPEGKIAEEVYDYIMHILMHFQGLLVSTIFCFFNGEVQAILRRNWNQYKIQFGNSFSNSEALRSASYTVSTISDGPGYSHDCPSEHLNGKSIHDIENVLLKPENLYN
Calcitonin Gene-Related Peptide CGRP1 (h), sequence (O60894 whole entry partner, looked up): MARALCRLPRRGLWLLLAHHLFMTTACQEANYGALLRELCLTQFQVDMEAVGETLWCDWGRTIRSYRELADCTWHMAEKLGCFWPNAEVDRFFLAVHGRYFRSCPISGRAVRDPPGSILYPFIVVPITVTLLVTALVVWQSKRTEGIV

TNF-α (h) = test: as above; format: binding, human
Adrenergic β2 (h) = Adrenergic β2 (h) (Homo sapiens (Human), UniProt P07550); test: as above; format: binding; conditions: antagonist radioligand
Adrenergic β2 (h), sequence (P07550 whole entry, looked up): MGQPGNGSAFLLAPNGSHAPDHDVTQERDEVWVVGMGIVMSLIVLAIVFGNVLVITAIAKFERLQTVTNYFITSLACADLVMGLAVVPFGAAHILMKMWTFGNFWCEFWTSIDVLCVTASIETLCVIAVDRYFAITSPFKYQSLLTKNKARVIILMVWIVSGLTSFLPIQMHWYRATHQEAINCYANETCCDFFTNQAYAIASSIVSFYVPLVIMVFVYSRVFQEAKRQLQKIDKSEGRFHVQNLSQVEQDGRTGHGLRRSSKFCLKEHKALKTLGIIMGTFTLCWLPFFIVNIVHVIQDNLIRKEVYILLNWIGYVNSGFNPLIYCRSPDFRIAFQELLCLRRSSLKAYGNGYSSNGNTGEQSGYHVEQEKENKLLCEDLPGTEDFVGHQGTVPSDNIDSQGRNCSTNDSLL

Dopamine D3 (h) = Dopamine D3 (h) (Homo sapiens (Human), UniProt P35462); test: as above; format: binding
[3] = system: Platelet-Derived Growth Factor (PDGF) (m); test: as above; format: binding, mouse
[4] = target: Prostacyclin IP (PGI2) (h) (Homo sapiens (Human), UniProt P43119); test: as above; conditions: read-out: binding at 10 μM
Prostacyclin IP (PGI2) (h), sequence (P43119 whole entry, looked up): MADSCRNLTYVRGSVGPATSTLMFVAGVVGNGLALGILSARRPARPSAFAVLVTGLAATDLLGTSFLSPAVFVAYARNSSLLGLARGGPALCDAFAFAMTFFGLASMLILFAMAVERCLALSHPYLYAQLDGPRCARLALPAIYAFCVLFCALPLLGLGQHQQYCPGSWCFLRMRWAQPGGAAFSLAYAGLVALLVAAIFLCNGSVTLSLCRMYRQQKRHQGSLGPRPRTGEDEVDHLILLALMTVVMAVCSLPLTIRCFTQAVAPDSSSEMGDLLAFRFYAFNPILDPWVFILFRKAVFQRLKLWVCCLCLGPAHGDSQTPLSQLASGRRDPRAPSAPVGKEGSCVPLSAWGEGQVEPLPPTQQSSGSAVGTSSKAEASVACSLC

δ-opioid (h) = δ-opioid (h) (Homo sapiens (Human), UniProt P41143); test: as above; conditions: read-out: binding at 10 μM
δ-opioid (h), sequence (P41143 whole entry, looked up): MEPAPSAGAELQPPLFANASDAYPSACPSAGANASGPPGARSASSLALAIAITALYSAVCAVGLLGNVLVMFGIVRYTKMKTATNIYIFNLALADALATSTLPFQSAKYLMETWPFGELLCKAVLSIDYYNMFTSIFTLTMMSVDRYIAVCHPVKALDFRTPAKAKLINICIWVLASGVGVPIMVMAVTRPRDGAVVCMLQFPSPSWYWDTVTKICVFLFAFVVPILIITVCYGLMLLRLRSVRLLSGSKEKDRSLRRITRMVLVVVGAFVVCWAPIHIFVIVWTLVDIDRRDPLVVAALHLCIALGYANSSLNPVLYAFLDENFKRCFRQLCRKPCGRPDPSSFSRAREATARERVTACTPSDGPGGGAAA

[5] = system: sigma (non-selective) (h); test: as above; format: binding, human; conditions: agonist radioligand
Neurotensin NT1 (h) = Neurotensin NT1 (h) (Homo sapiens (Human), UniProt P30989); test: as above; conditions: read-out: binding at 10 μM
Neurotensin NT1 (h), sequence (P30989 whole entry, looked up): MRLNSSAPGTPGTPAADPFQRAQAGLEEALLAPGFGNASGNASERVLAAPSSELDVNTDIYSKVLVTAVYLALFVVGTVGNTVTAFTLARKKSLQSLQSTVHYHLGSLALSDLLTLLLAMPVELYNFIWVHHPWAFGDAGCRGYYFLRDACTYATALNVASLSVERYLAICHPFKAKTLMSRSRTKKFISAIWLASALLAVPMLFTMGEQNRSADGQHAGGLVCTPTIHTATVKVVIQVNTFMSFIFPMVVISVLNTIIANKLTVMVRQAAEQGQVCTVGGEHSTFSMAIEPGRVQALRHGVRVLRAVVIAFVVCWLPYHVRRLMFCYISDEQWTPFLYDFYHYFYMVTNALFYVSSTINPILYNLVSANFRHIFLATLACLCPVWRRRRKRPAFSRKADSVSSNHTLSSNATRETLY

Tachykinin NK1 (h) = Tachykinin NK1 (h) (Homo sapiens (Human), UniProt P25103); test: as above; conditions: read-out: binding at 10 μM
Tachykinin NK1 (h), sequence (P25103 whole entry, looked up): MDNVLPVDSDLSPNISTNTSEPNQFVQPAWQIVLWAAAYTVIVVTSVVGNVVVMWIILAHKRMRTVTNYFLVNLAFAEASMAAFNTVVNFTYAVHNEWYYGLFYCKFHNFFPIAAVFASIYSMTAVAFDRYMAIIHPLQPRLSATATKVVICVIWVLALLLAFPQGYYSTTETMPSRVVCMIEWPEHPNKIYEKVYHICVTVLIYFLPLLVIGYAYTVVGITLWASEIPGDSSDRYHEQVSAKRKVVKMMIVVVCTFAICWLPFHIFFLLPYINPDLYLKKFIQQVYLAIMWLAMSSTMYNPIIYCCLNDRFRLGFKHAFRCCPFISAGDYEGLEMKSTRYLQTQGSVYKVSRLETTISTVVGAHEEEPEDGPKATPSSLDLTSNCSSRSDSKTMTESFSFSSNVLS

5-HT transporter (h) = 5-HT transporter (h) (Homo sapiens (Human), UniProt P31645); test: as above; format: binding
[6] = target: Cholecystokinin CCK1 (CCKA) (h) (Homo sapiens (Human), UniProt P32238); test: as above; conditions: read-out: binding at 10 μM
[7] = target: BZD (peripheral) (rat heart) (Rattus norvegicus (Rat), UniProt P16257); test: as above; conditions: read-out: binding at 10 μM
[8] = system: Somatostatin SST (non-selective) (m); test: as above; format: binding, mouse
κ-opioid (h) = κ-opioid (h) (Homo sapiens (Human), UniProt P41145); test: as above; conditions: read-out: binding at 10 μM
Angiotensin AT2 (h) = Angiotensin AT2 (h) (Homo sapiens (Human), UniProt P50052); test: as above; conditions: read-out: binding at 10 μM
Endothelin ETA (h) = Endothelin ETA (h) (Homo sapiens (Human), UniProt P25101); test: as above; conditions: read-out: binding at 10 μM
5-HT2C receptor = 5-HT2C receptor (Homo sapiens (Human), UniProt P28335); test: 5-HT2C functional assay, IP1 (IPOne); format: cell-based; conditions: for Emax: IP1 assay, relative to 5-HT
5-HT2C receptor, sequence (P28335 whole entry, looked up): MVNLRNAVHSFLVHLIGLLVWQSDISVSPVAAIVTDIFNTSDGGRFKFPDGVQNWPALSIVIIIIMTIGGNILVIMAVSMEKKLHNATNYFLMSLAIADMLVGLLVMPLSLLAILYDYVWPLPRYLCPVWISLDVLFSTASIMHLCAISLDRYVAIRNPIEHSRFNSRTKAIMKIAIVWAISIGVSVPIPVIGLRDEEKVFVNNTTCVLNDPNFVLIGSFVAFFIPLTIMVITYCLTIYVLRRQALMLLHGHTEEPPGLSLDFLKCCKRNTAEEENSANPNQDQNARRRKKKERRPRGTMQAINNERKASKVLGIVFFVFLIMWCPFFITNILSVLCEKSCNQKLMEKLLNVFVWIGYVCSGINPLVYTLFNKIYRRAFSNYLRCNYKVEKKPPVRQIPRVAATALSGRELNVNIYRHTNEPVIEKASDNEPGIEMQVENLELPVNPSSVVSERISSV
Protocol: 5-HT2A,2B,2C receptor-mediated Gq activation—canonical signaling pathways—[phosphoinositide hydrolysis leading to the production of inositol phosphate 1 (IP1, IPOne, Cisbio assay) or direct G-protein activation using TRUPATH technology]were measured as previously described (Porter, R. H. P., Benwell, K. R., Lamb, H., Malcolm, C. S., Allen, N. F., Revell, D. F., Adams, D. R. and Sheardown, M. J., 1999, Functional characterization of agonists at recombinant human 5-HT2a, 5HT2b and 5-HT2c receptors in CHO-K1 cells, Brit J Pharmacol 128, 13; Olsen, R. H. J., DiBerto, J. F., English, J. G. et al. TRUPATH, an open-source biosensor platform for interrogating the GPCR transducerome. […] Briefly, for the IPOne assay, for 5-HT2ARs, CHO-K1 or HEK-293 cells were incubated with test articles and 5-HT (positive control) in stimulation buffer containing LiCl. After incubation, cells were lysed and fluorescence acceptor and donor were added. FRET was measured after 60 min at room temperature using a microplate reader (Envision, Perkin Elmer). TRUPATH assays followed a similar workflow, except that different reagents were used, and LiCl was not included in the samples; the protocol was based on the report by Olsen, R. H. J. et al., cited above.

Chemokine CCR1 (h) = Chemokine CCR1 (h) (Homo sapiens (Human), UniProt P32246); test: Off-target screen, radioligand displacement at 10 μM; conditions: read-out: binding at 10 μM
Chemokine CCR1 (h), sequence (P32246 whole entry, looked up): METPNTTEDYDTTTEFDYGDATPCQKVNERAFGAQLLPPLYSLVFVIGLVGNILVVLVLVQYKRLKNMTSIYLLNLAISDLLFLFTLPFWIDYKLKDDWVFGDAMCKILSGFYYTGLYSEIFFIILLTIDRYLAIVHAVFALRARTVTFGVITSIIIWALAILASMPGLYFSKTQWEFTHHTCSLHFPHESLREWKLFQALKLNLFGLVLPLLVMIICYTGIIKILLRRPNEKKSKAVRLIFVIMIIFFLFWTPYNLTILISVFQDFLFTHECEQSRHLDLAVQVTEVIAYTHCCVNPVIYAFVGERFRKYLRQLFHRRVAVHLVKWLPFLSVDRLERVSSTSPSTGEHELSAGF

5-HT1A (h) = 5-HT1A (h) (Homo sapiens (Human), UniProt P08908); test: as above; format: binding; conditions: agonist radioligand
[9] = target: norepinephrine transporter (h) (Homo sapiens (Human), UniProt P23975); test: as above; conditions: read-out: binding at 10 μM
[10] = system: Na+ channel (site 2) (rat cortex); test: as above; format: binding; conditions: antagonist radioligand
Endothelin ETB (h) = Endothelin ETB (h) (Homo sapiens (Human), UniProt P24530); test: as above; conditions: read-out: binding at 10 μM
Endothelin ETB (h), sequence (P24530 whole entry, looked up): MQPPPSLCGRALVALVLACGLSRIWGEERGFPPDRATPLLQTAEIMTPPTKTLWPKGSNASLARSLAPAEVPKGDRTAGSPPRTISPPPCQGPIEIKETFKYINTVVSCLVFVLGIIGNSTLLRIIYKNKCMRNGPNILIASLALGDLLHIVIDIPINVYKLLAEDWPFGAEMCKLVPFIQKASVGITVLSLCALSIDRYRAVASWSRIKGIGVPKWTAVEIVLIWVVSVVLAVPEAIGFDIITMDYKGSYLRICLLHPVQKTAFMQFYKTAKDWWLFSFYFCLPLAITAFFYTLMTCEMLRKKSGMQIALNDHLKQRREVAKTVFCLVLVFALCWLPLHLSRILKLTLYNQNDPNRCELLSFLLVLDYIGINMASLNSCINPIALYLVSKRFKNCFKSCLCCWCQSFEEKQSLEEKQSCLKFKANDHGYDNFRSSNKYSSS

α1 (non-selective) (r) = test: as above; format: binding, rat
5-HT6 (h) = 5-HT6 (h) (Homo sapiens (Human), UniProt P50406); test: as above; format: binding; conditions: agonist radioligand
Orphanin ORL1 (h) = Orphanin ORL1 (h) (Homo sapiens (Human), UniProt P41146); test: as above; conditions: read-out: binding at 10 μM
Tachykinin NK3 (h) = Tachykinin NK3 (h) (Homo sapiens (Human), UniProt P29371); test: as above; conditions: read-out: binding at 10 μM
Tachykinin NK3 (h), sequence (P29371 whole entry, looked up): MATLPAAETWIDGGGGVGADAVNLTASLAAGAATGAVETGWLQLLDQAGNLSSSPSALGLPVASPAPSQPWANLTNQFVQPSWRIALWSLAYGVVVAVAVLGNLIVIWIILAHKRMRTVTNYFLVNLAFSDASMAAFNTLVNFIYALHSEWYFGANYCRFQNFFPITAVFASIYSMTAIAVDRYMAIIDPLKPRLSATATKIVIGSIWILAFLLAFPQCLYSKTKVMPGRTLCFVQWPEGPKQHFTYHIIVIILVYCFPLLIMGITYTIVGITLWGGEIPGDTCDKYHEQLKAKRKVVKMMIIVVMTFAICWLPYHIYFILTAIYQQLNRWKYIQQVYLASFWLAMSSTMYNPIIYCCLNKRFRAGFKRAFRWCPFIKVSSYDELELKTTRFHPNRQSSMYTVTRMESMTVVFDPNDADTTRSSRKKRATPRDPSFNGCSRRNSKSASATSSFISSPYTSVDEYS

Neuropeptide Y Y1 (h) = Neuropeptide Y Y1 (h) (Homo sapiens (Human), UniProt P25929); test: as above; conditions: read-out: binding at 10 μM
D2S (h) = D2S (h) (Homo sapiens (Human), UniProt P14416); test: as above; conditions: read-out: binding at 10 μM
D2S (h), sequence (P14416 whole entry, looked up): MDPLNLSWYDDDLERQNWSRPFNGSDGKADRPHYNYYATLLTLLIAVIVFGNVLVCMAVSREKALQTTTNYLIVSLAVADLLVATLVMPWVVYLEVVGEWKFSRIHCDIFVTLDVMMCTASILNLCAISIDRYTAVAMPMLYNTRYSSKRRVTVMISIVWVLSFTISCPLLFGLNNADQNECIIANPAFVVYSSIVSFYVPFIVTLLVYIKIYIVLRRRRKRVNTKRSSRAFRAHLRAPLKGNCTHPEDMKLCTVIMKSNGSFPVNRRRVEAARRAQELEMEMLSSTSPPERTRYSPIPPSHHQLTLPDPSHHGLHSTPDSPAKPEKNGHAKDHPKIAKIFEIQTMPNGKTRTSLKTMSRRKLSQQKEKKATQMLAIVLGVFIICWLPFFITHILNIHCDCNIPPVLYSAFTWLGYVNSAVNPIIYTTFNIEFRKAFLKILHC

dopamine transporter (h) = dopamine transporter (h) (Homo sapiens (Human), UniProt Q01959); test: as above; conditions: read-out: binding at 10 μM
[11] = antagonist radioligand, read-out: inhibition at 10 μM

Compound | inhibition at 10 µM [1] [%] | binding at 10 μM (Adenosine A2A (h)) | inhibition at 10 µM [2] [%] | binding at 10 μM (TNF-α (h)) | inhibition at 10 µM (Adrenergic β2 (h)) [%] | binding at 10 μM [3] | inhibition at 10 µM [4] [%] | inhibition at 10 µM (δ-opioid (h)) [%] | inhibition at 10 µM [5] [% inhibition at 10 μM] | inhibition at 10 µM (Neurotensin NT1 (h)) [%] | inhibition at 10 µM (Tachykinin NK1 (h)) [%] | inhibition at 10 µM [6] [%] | inhibition at 10 µM [7] [%] | binding at 10 μM [8] | inhibition at 10 µM (κ-opioid (h)) [%] | inhibition at 10 µM (Angiotensin AT2 (h)) [%] | inhibition at 10 µM (Endothelin ETA (h)) [%] | EC50 (5-HT2C receptor) [nM] | Emax (5-HT2C receptor) [%] | inhibition at 10 µM (Chemokine CCR1 (h)) [%] | other results
COc1cc(CC(C)N)c(OC)cc1I (racemic) [DOI, (±)-2,5-dimethoxy-4-iodoamphetamine, reference compound] | < 50 | NB (inhibited less than 50% of radioligand bound to them, and therefore it can be concluded they do not bind (“no binding,” NB)) | < 50 | NB (inhibited less than 50% of radioligand bound to them, and therefore it can be concluded they do not bind (“no binding,” NB)) | ≥ 80 | NB (inhibited less than 50% of radioligand bound to them, and therefore it can be concluded they do not bind (“no binding,” NB)) | < 50 | < 50 | 61.7 | < 50 | < 50 | < 50 | < 50 | NB (inhibited less than 50% of radioligand bound to them, and therefore it can be concluded they do not bind (“no binding,” NB)) | < 50 | < 50 | < 50 | 8 | ~108 | < 50 | inhibition at 10 µM (Dopamine D3 (h); read-out: binding at 10 μM): < 50%; inhibition at 10 µM (5-HT transporter (h); [11]): 76.2%; inhibition at 10 µM (5-HT1A (h)): ≥ 80%; inhibition at 10 µM [9]: < 50%; inhibition at 10 µM [10]: 53.5% inhibition at 10 μM; inhibition at 10 µM (Endothelin ETB (h)): < 50%; binding at 10 μM (α1 (non-selective) (r)): NB (inhibited less than 50% of radioligand bound to them, and therefore it can be concluded they do not bind (“no binding,” NB)); inhibition at 10 µM (5-HT6 (h)): 64.4%; inhibition at 10 µM (Orphanin ORL1 (h)): < 50%; inhibition at 10 µM (Tachykinin NK3 (h)): < 50%; inhibition at 10 µM (Neuropeptide Y Y1 (h)): < 50%; inhibition at 10 µM (D2S (h)): < 50%; inhibition at 10 µM (dopamine transporter (h)): < 50%
COc1cc(SC(F)(F)F)c(OC)cc1CCN [Compound I-1, 2-(2,5-dimethoxy-4-((trifluoromethyl)thio)phenyl)ethan-1-amine] | < 50 | NB (inhibited less than 50% of radioligand bound to them, and therefore it can be concluded they do not bind (“no binding,” NB)) | < 50 | NB (inhibited less than 50% of radioligand bound to them, and therefore it can be concluded they do not bind (“no binding,” NB)) | 52.2 | NB (inhibited less than 50% of radioligand bound to them, and therefore it can be concluded they do not bind (“no binding,” NB)) | < 50 | < 50 | 64.1 | < 50 | < 50 | < 50 | < 50 | NB (inhibited less than 50% of radioligand bound to them, and therefore it can be concluded they do not bind (“no binding,” NB)) | < 50 | < 50 | < 50 | 7.3 | ~99 | < 50 | inhibition at 10 µM (Dopamine D3 (h); [11]): 70.4%; inhibition at 10 µM (5-HT transporter (h); read-out: binding at 10 μM): < 50%; activation selectivity for 5-HT2C over 5-HT2B (5-HT2C receptor; EC50, IP1): ~12 fold; inhibition at 10 µM (5-HT1A (h)): > 80%; inhibition at 10 µM [9]: < 50%; inhibition at 10 µM [10]: 68.4% inhibition at 10 μM; inhibition at 10 µM (Endothelin ETB (h)): < 50%; binding at 10 μM (α1 (non-selective) (r)): NB (inhibited less than 50% of radioligand bound to them, and therefore it can be concluded they do not bind (“no binding,” NB)); inhibition at 10 µM (5-HT6 (h)): > 80%; inhibition at 10 µM (Orphanin ORL1 (h)): < 50%; inhibition at 10 µM (Tachykinin NK3 (h)): < 50%; inhibition at 10 µM (Neuropeptide Y Y1 (h)): < 50%; inhibition at 10 µM (D2S (h)): < 50%; inhibition at 10 µM (dopamine transporter (h)): < 50%
